Patent US20210205365A1, “Chimeric Growth Factor Receptors” (Instil Bio (UK) Ltd., priority 2018, published 2021)

How the values were obtained:
phospho-STAT5 = assay: Induction of pSTAT5 in CrGFR expressing T-cells; format: cell-based, human; conditions: CrGFR expressing T-cells from 4 donors treated for four hours
Description: FIG. 15—Induction of pSTAT by chimeric recombinant growth factor receptors. Primary human T-cells were isolated and transduced with the indicated CrGFR. Cells were enriched for CrGFR expression using Miltenyi MACS technology and expanded via polyclonal stimulation. The enriched cells were stimulated for 4 h with either media alone (RPMI), IL2, IL12, Tpo or Eltrombopag (Elt) before methanol fixation and intracellular staining with antibodies towards phospho-STAT5.
Finally, Applicants validated the signalling potential of the novel CrGFR by conducting phospho STAT analysis upon treatment of CrGFR expressing T-cells with media, cytokine or drug. To this end T-cells from 4 donors were transduced with either the wt TpoR, TpoR. CD40 or TpoR.IL2rγ, enriched for CrGFR expression using paramagnetic bead selection protocols and then expanded using polyclonal stimulation. The cells were treated for four hours with media alone (RPMI), IL-2, Tpo or Eltrombopag (Elt) before methanol fixation, permeabilization and analysis using pSTAT specific antibodies. STAT molecules are the key drivers of cell signalling upon cytokine activation of cells, pSTAT5 in particular is key to IL-2 activity.

primary human T-cells [1] = assay: Eltrombopag and IL-2 on CrGFR sorted (CD110+) primary human T-cells, up to 7 days; format: cell-based; conditions: second donor (FIG. 12)
Description: (§1) FIG. 10—Analysis of Eltrombopag and IL-2 on CrGFR sorted primary human T-cells from Donor 4. Primary human T-cells from donor 4 were transduced with the WT TpoR or variant CrGFR, and enriched for expression by Miltenyi MACS technology selected for and incubated in the presence of IL2 or Eltrombopag. Cells were removed at time points up to 7 days and the number of cells expressing the receptor assessed using PE conjugated anti-CD110 antibodies, DRAQ7 viability dye and a MACSQuant analyser.
as §1, with “11—Analysis” for “10—Analysis”, “5.” for “4.”, “5” for “4”
as §1, with “12—Analysis” for “10—Analysis”, “6.” for “4.”, “6” for “4”
Paramagnetic bead sorts were conducted as per the manufacturers' instructions using either anti-PE microbeads (Miltenyi Biotec or StemCell Technologies), or T-cell isolation beads (17951: StemCell Technologies).
Next Applicants repeated the experiment but sorted the CrGFR+ cells using CD110+ selection by paramagnetic bead selection using the receptors identified from the first round of selections (FIGS. 10, 11 and 12). Applicants observed enhanced survival of T-cells engrafted with the majority of the CrGFR in all three donors. In particular Applicants saw expansion of WT-TpoR, TpOR.CD40, TpOR.IL2rγ and TpoR.LMP1-cyto cells in the second donor (FIG. 12) above that with media alone.

primary human T-cells [2] = assay: Eltrombopag and IL-2 on CrGFR transduced primary human T-cells, up to 21 days; format: cell-based; conditions: after 21 days, x3 donors, Eltrombopag
Description: (§2) FIGS. 6A-6B—Analysis of Eltrombopag and IL-2 on primary human T-cells from Donor 1. Primary human T-cells from donor 1 were transduced with the WT TpoR or variant CrGFR and incubated in the presence of IL2 or Eltrombopag. Cells were removed at time points up to 21 days and the proportion of cells expressing the receptor assessed using PE conjugated anti-CD110 antibodies and a MACSQuant analyser.
as §2, with “FIGS. 7A-7B—Analysis” for “FIGS. 6A-6B—Analysis”, “Donor 2.” for “Donor 1.”, “donor 2” for “donor 1”
as §2, with “FIGS. 8A-8B—Analysis” for “FIGS. 6A-6B—Analysis”, “Donor 3.” for “Donor 1.”, “donor 3” for “donor 1”
FIGS. 9A-9B—Selection of optimal CrGFRs for next round of analysis. Flow cytometry plots showing expression of CrGFRs in ×3 donor primary human T-cells after 21 days incubation in Eltrombopag. The receptors TpoR.CD40, TpoR.IL2rγ, TpoR.ITAM1, TpoR.A60, TpoR.LMP1-cyto and TpoR.TpoR-cyto.LMP1-cyto were chosen for future comparison with the wt TpoR.
Peripheral blood mononuclear cells were isolated from normal healthy donors before activation for 24 hours with T-cell activation and expansion beads (Invitrogen) according to the manufacturer's instructions before addition of lentiviral supernatants.
Following expansion cells were washed excessively to remove any exogenous IL2 and plated into 96-well U-bottom plates. Cells were supplemented with IL2 (Proleukin) or Eltrombopag (Stratech Scientific, Suffolk, UK). At various time points thereafter cells were either stained with a 1:400 dilution of eFlor-450 fixable viability dye (eBioscience, UK) and counted directly from the wells using a MACSQuant Cytometer, or were stained with DRAQ7 viability dye plus phycoerythrin conjugated anti-CD110 antibodies (Miltenyi Biotec, UK) and analysed using a MACSQuant cytomter. Cell viability and/or transduction level was then analysed using MACSQuantify software (Miltenyi Biotec, UK).
Next Applicants took these receptors and expressed them in primary human T-cells and exposed these cells to IL-2 or Eltrombopag. Three donor primary human T-cell populations were isolated from buffy coats and transduced with the indicated lentiviral constructs in the presence of CD3/CD28 Dynabeads. Following expansion the cells were incubated with IL-2 or Eltrombopag. Applicants saw an increase in expansion/survival of T-cells with some of the receptors in some of the donors. […] This narrowed Applicants' panel of receptors to analyse further to: TpoR.CD40, TpOR.IL2rγ, TpoR.ITAM1, TpOR.LMP1-cyt, and TpoR.TpoR-cyt-LMP1-cyt.

| Molecule | induction of pSTAT5 by cytokine or drug (phospho-STAT5) | expansion of CrGFR cells above that with media alone (primary human T-cells [1]) | proportion of viable cells with a distinct population of CD110+ cells (primary human T-cells [2]) |
| --- | --- | --- | --- |
| Tpo: thrombopoietin (Tpo), native ligand of TpoR | showed induction of STAT5 activity |  |  |
| TpoR.LMP1-cyt: SEQ ID NO: 12; TpoR EC and TM domain fused to LMP-1 cytoplasmic domain |  | expansion | good proportion of viable cells with a distinct population of CD110+ cells |
| TpoR.TpoR-cyt-LMP1-cyt: SEQ ID NO: 11; TpoR with TpoR cytoplasmic domain fused to LMP-1 cytoplasmic domain |  |  | good proportion of viable cells with a distinct population of CD110+ cells |
| TpoR.Δ60: SEQ ID NO: 2; TpoR with C-terminal truncation of the cytoplasmic domain (protein, TpoR.delta60; MISC_FEATURE (1)..(491): TpoR Extracellular Domain; MISC_FEATURE (492)..(513): TpoR Transmembrane Domain; MISC_FEATURE (514)..(580): TpoR Cytoplasmic Domain with C-terminal Truncation) MPSWALFMVTSCLLLAPQNLAQVSSQDVSLLASDSEPLKCFSRTFEDLTCFWDEEEAAPSGTYQLLYAYPREKPRACPLSSQSMPHFGTRYVCQFPDQEEVRLFFPLHLWVKNVFLNQTRTQRVLFVDSVGLPAPPSIIKAMGGSQPGELQISWEEPAPEISDFLRYELRYGPRDPKNSTGPTVIQLIATETCCPALQRPHSASALDQSPCAQPTMPWQDGPKQTSPSREASALTAEGGSCLISGLQPGNSYWLQLRSEPDGISLGGSWGSWSLPVTVDLPGDAVALGLQCFTLDLKNVTCQWQQQDHASSQGFFYHSRARCCPRDRYPIWENCEEEEKTNPGLQTPQFSRCHFKSRNDSIIHILVEVTTAPGTVHSYLGSPFWIHQAVRLPTPNLHWREISSGHLELEWQHPSSWAAQETCYQLRYTGEGHQDWKVLEPPLGARGGTLELRPRSRYRLQLRARLNGPTYQGPWSSWSDPTRVETATETAWISLVTALHLVLGLSAVLGLLLLRWQFPAHYRRLRHALWPSLPDLHRVLGQYLRDTAALSPPKATVSDTCEEVEPSLLEILPKSSERTPL |  |  | looked good |
| IL-12: IL-12 as a control (protein, UniProt P29459 23-219; P29460 23-328, looked up) Interleukin-12 subunit alpha: RNLPVATPDPGMFPCLHHSQNLLRAVSNMLQKARQTLEFYPCTSEEIDHEDITKDKTSTVEACLPLELTKNESCLNSRETSFITNGSCLASRKTSFMMALCLSSIYEDLKMYQVEFKTMNAKLLMDPKRQIFLDQNMLAVIDELMQALNFNSETVPQKSSLEEPDFYKTKIKLCILLHAFRIRAVTIDRVMSYLNAS Interleukin-12 subunit beta: IWELKKDVYVVELDWYPDAPGEMVVLTCDTPEEDGITWTLDQSSEVLGSGKTLTIQVKEFGDAGQYTCHKGGEVLSHSLLLLHKKEDGIWSTDILKDQKEPKNKTFLRCEAKNYSGRFTCWWLTTISTDLTFSVKSSRGSSDPQGVTCGAATLSAERVRGDNKEYEYSVECQEDSACPAAEESLPIEVMVDAVHKLKYENYTSSFFIRDIIKPDPPKNLQLKPLKNSRQVEVSWEYPDTWSTPHSYFSLTFCVQVQGKSKREKKDRVFTDKTSATVICRKNASISVRAQDRYYSSSWSEWASVPCS | unable to induce STAT5 activation |  |  |
| TpoR.ITAM1: SEQ ID NO: 10; TpoR fused to ITAM1 cytoplasmic domain (protein, TpoR-ITAM1; MISC_FEATURE (1)..(491): TpoR Extracellular Domain; MISC_FEATURE (492)..(513): TpoR Transmembrane Domain; MISC_FEATURE (514)..(635): TpoR Cytoplasmic Domain; MISC_FEATURE (636)..(676): ITAM1 Cytoplasmic Domain) MPSWALFMVTSCLLLAPQNLAQVSSQDVSLLASDSEPLKCFSRTFEDLTCFWDEEEAAPSGTYQLLYAYPREKPRACPLSSQSMPHFGTRYVCQFPDQEEVRLFFPLHLWVKNVFLNQTRTQRVLFVDSVGLPAPPSIIKAMGGSQPGELQISWEEPAPEISDFLRYELRYGPRDPKNSTGPTVIQLIATETCCPALQRPHSASALDQSPCAQPTMPWQDGPKQTSPSREASALTAEGGSCLISGLQPGNSYWLQLRSEPDGISLGGSWGSWSLPVTVDLPGDAVALGLQCFTLDLKNVTCQWQQQDHASSQGFFYHSRARCCPRDRYPIWENCEEEEKTNPGLQTPQFSRCHFKSRNDSIIHILVEVTTAPGTVHSYLGSPFWIHQAVRLPTPNLHWREISSGHLELEWQHPSSWAAQETCYQLRYTGEGHQDWKVLEPPLGARGGTLELRPRSRYRLQLRARLNGPTYQGPWSSWSDPTRVETATETAWISLVTALHLVLGLSAVLGLLLLRWQFPAHYRRLRHALWPSLPDLHRVLGQYLRDTAALSPPKATVSDTCEEVEPSLLEILPKSSERTPLPLCSSQAQMDYRRLQPSCLGTMPLSVCPPMAESGSCCTTHIANHSYLPLSYWQQPRVKFSRSADAPAYQQGQNQLYNELNLGRREEYDVLDKRRGR |  |  | good proportion of viable cells with a distinct population of CD110+ cells |
